Consider eight compounds from ChEMBL document CHEMBL1201862, “PubChem BioAssay data set” (2004).

Test systems include ACHN; CAKI-1; HCC 2998; HCT-116; HL-60; HOP-62; HOP-92; IGROV-1; K562; NCI-H522; NCI/ADR-RES; OVCAR-5; OVCAR-8; SF-268; SF-539; SN12C; SNB-19; SR; UO-31; OVCAR-4.
Test in all cases: DTP human tumour cell line panel, 48 h

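48-hour exposure; five concentrations; linearly interpolated endpoints. At the GI50, growth is halved.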 Active and inactive are the calls of the source. Rule as the data show it: active = GI50 up to about 1.1 µM and inactive = higher.

Take `S=C(N/N=C/c1ccccn1)N1CCCCCC1`: the 50% growth inhibitory concentration (GI50) is < 0.01 µM (active) with ACHN; < 0.0423 µM (active) with CAKI-1; 0.444 µM (active) with HCC 2998; < 0.01 µM (active) in the experiment on HCT-116; < 0.01 µM (active) with HL-60; < 0.01 µM (active) in the experiment on HOP-62. Further, the GI50 in the experiment with HOP-92 is 0.0832 µM (active); in the experiment with IGROV-1, < 0.01 µM (active); with K562, < 0.01 µM (active); in the experiment with NCI-H522 it was < 0.0267 µM (active); with NCI/ADR-RES it was < 0.01 µM (active); in the experiment with OVCAR-5 it was < 0.0458 µM (active). In addition, the GI50 was < 0.01 µM (active) in the experiment on OVCAR-8; < 0.0121 µM (active) with SF-268; < 0.0288 µM (active) with SF-539; < 0.0192 µM (active) in the experiment with SN12C; 0.416 µM (active) in the experiment with SNB-19; < 0.01 µM (active) in the experiment on SR. For the same compound, the 50% growth inhibitory concentration (GI50) in the experiment with UO-31 is 0.0288 µM (active).

Consider `Fc1cccc(C2ON=C(c3ccccc3)N2C23CC4CC(CC(C4)C2)C3)c1` (stereo not drawn), for which the GI50 with ACHN, in the experiment on CAKI-1, in the experiment with HCC 2998, in the experiment with HCT-116, in the experiment with HL-60 and in the experiment on HOP-62 was > 10 µM (inactive) each time. Besides, the GI50 in the experiment with HOP-92, in the experiment on IGROV-1, with K562, in the experiment with NCI-H522, in the experiment with NCI/ADR-RES and with OVCAR-4 was > 10 µM (inactive) in each case. In addition, the GI50 in the experiment with OVCAR-5, in the experiment on OVCAR-8, in the experiment on SF-268, with SF-539, in the experiment with SN12C and in the experiment on SNB-19 was > 10 µM (inactive) in each case. Also, in the experiment on SR, the GI50 was 8.97 µM (inactive).

Turning to `COC(CC1(/C=C/O[Si](C(C)C)(C(C)C)C(C)C)C(=O)N(COCC[Si](C)(C)C)c2ccccc21)OC` (stereo not drawn), the GI50 is 26.6 µM (inactive) with ACHN; 46.3 µM (inactive) in the experiment on CAKI-1; 27.9 µM (inactive) in the experiment on HCC 2998; 16.1 µM (inactive) with HCT-116; 66.8 µM (inactive) in the experiment on HOP-62; 9.48 µM (inactive) in the experiment with HOP-92. Further, the GI50 is 24.5 µM (inactive) in the experiment on IGROV-1; > 100 µM (inactive) with K562; 6.75 µM (inactive) with NCI-H522; > 100 µM (inactive) in the experiment on NCI/ADR-RES; 20.8 µM (inactive) in the experiment with OVCAR-4; 37.4 µM (inactive) in the experiment with OVCAR-5. Further, the GI50 with OVCAR-8 was > 100 µM (inactive); in the experiment on SF-268 it was 17 µM (inactive); with SF-539, 15.1 µM (inactive); with SN12C, 45.1 µM (inactive); in the experiment with SNB-19, 33.7 µM (inactive); with SR it was 21 µM (inactive). Besides, the GI50 in the experiment with UO-31 is 76 µM (inactive).

`CCN(CC)CCNC(=O)c1cc2cc(NC(=O)c3cc4cc(NC(=O)c5cc6cc(N)ccc6[nH]5)ccc4[nH]3)ccc2[nH]1`: the GI50 with ACHN, in the experiment on CAKI-1, in the experiment on HCC 2998, with HOP-62, in the experiment with HOP-92 and in the experiment on IGROV-1 was > 100 µM (inactive) in each case. The GI50 in the experiment with K562, in the experiment on NCI-H522, with NCI/ADR-RES, in the experiment with OVCAR-4, in the experiment with OVCAR-5 and with OVCAR-8 was > 100 µM (inactive) in each case. Besides, the GI50 in the experiment with SF-268, in the experiment on SN12C, in the experiment with SNB-19, in the experiment on SR and with UO-31 was > 100 µM (inactive) each time.

In the case of `CCCCCCCCCCCCCCCCP(=O)([O-])OCC[N+](C)(C)C`, the GI50 with ACHN was 16.5 µM (inactive); in the experiment with CAKI-1 it was 12.1 µM (inactive); with HCC 2998, 6.19 µM (inactive); with HCT-116, 14.8 µM (inactive); in the experiment on HOP-62, 15.2 µM (inactive); in the experiment on HOP-92 it was 15 µM (inactive). In addition, the GI50 in the experiment with IGROV-1 was 1.56 µM (inactive); with K562, 19 µM (inactive); with NCI-H522, 22.6 µM (inactive); in the experiment on NCI/ADR-RES, 18.7 µM (inactive); in the experiment on OVCAR-4, 19.1 µM (inactive); with OVCAR-5, 8.55 µM (inactive). Further, the GI50 in the experiment with OVCAR-8 is 16.9 µM (inactive); with SF-268, 17.6 µM (inactive); in the experiment with SF-539, 24.5 µM (inactive); in the experiment on SN12C, 12.9 µM (inactive); in the experiment with SNB-19, 30 µM (inactive); with SR, 10.4 µM (inactive). Further, the GI50 in the experiment with UO-31 is 14.9 µM (inactive).

In the case of `Fc1ccc(C(OCCN2CCN(CCCc3ccccc3)CC2)c2ccc(F)cc2)cc1`, the GI50 is 5.82 µM (inactive) in the experiment on ACHN; 4.06 µM (inactive) in the experiment with CAKI-1; 3.79 µM (inactive) with HCC 2998; 4.2 µM (inactive) in the experiment with HL-60; 5.32 µM (inactive) with HOP-62; 3.5 µM (inactive) in the experiment with HOP-92. The GI50 in the experiment on IGROV-1 is 10.4 µM (inactive); with K562, 3.05 µM (inactive); with NCI-H522, 3.48 µM (inactive); with NCI/ADR-RES, 3.13 µM (inactive); in the experiment with OVCAR-4 it was 4.15 µM (inactive); with OVCAR-5, 4.5 µM (inactive). Besides, the GI50 with OVCAR-8 is 3.92 µM (inactive); in the experiment on SF-268, 4.18 µM (inactive); in the experiment with SN12C, 4.11 µM (inactive); in the experiment on SNB-19, 3.99 µM (inactive); in the experiment on SR, 2.71 µM (inactive); in the experiment with UO-31, 2.73 µM (inactive).

Regarding `N#CC(=S)Nc1ccc(F)cc1`, the GI50 with ACHN is 60 µM (inactive); with CAKI-1, 63.8 µM (inactive); in the experiment with HCC 2998 it was 45.4 µM (inactive); in the experiment on HCT-116, 86.1 µM (inactive); in the experiment with HL-60 it was 30.4 µM (inactive); in the experiment on HOP-62, > 100 µM (inactive). The GI50 in the experiment with HOP-92 is 19.4 µM (inactive); in the experiment on IGROV-1, 32.1 µM (inactive); with K562, 23.9 µM (inactive); in the experiment on NCI/ADR-RES it was 34.2 µM (inactive); with OVCAR-4, 28.6 µM (inactive); in the experiment with OVCAR-5 it was 83.9 µM (inactive). Further, the GI50 with OVCAR-8 is 96.2 µM (inactive); with SF-268, 96.8 µM (inactive); with SF-539, 38.2 µM (inactive); in the experiment on SN12C, > 100 µM (inactive); with SNB-19 it was > 100 µM (inactive); in the experiment on SR, 40.6 µM (inactive).

`COc1cccc(C(=O)C#Cc2cnc(OC)nc2OC)c1`: the GI50 in the experiment with ACHN was 1.73 µM (inactive); in the experiment on CAKI-1, 1.99 µM (inactive); with HCC 2998, 6.43 µM (inactive); with HCT-116 it was 3.18 µM (inactive); with HL-60, 0.682 µM (active); in the experiment on HOP-62, 13.5 µM (inactive). The GI50 with HOP-92 is 2.09 µM (inactive); with IGROV-1 it was 0.653 µM (active); in the experiment with K562 it was 0.356 µM (active); in the experiment with NCI-H522 it was 0.226 µM (active); in the experiment on NCI/ADR-RES, 1.85 µM (inactive); in the experiment with OVCAR-4, 2.36 µM (inactive). In addition, the GI50 in the experiment with OVCAR-5 is 2.91 µM (inactive); in the experiment on OVCAR-8 it was 1.7 µM (inactive); in the experiment with SF-268 it was 2.49 µM (inactive); in the experiment with SN12C, 0.753 µM (active); with SNB-19, 15.8 µM (inactive); in the experiment on SR it was 0.108 µM (active). In addition, the GI50 in the experiment on UO-31 was 1.37 µM (inactive).

As usually defined, the GI50 is the concentration that inhibits growth by half.
